Data: patent US4196217A, “Hydroxylated amines with bacteriostatic activity” (priority 1978, dated 1980)
“And” between values parts separate entries of the source, which are not always exact repeats. Equal values may be shown once. Read-outs that look alike come from different tables or passages of the source.

What was measured:
[1] = tested on: Staphyloccus aureus; experiment: bacteriostatic activity (MIC), Staphylococcus aureus; type: cell-based; conditions: Staphylococcus aureus, 48 h
Description: (§1) The medium containing the solution to be tested is inoculated in the form of three single striae with a 10^-5 times dilution of a bacterial culture aged 16 to 18 hours grown in salted peptone broth at a temperature of 37° C.
(§2) After inoculation, the media are stored at 37° C. for 48 hours, after which the bacterial growth is inspected. The MIC (minimum inhibiting concentrations) are expressed in micrograms of pure product per cubic centimeter of gelose medium required for inhibiting the culture (μg/cc). The control substance used is benzalconium chloride.
(§3) Tests were also carried out to determine the bacteriostatic activity of other compounds according to the invention by the method described above and in comparison with known substances, in particular with benzalconium chloride (compound T in the Tables).

[2] = tested on: Bacillus subtilis; experiment: bacteriostatic activity (MIC), Bacillus subtilis; type: cell-based; conditions: for MIC: Bacillus subtilis, 48 h
Description: as §1, §2, §3

[3] = ocular irritation; type: in vivo; conditions: 0.1 ml of a 0.5% solution
Description: The method used is the method described in the Official Journal of Apr. 21, 1971, page 3863, and comprises applying to the right eye of each animal 0.1 ml of a 0.5% solution. The general total of the results is 0 which confirms the high tolerance of the product mentioned above.

[4] = acute toxicity, intragastric, mice; conditions: mouse, in vivo, po, both after 48 hours and after 14 days
Description: The LD50 was calculated by the graphic method of J. T. Lichtfield and F. Wilcoxon (J. Pharm. Exp. Ther. 1949, 96: 99-[…]).

[5] = tested on: spores; experiment: sporocidal activity; type: cell-based; conditions: especially above 35° C. and at a pH around 7
[6] = tested on: Bacillus pyocyaneus; experiment: bactericidal concentration on 6 different strains; type: cell-based
[7] = in vivo; conditions: mouse, mice, intravenous, both after 3 minutes and after 14 days
Excerpt: Acute toxicity was again determined in male mice by intravenous administration.

[8] = tested on: Ps. aeruginosa; experiment: in vivo effect on infection of excised wounds in rats; set-up: species or system rats infected with Ps. aeruginosa
Description: The activity of the compound of Example 1 was also tested in vivo, in particular the compound was tested for its effect on Bacillus pyocyaneus in the following manner:
Rats are intravenously injected with 1 ml of a 10^8 solution of Ps. aeruginosa. A 20 cm^2 cutaneous excision was then made in the animals.
30 minutes after the injection, the bacteria injected were detected in the vicinity of the wound by the replica method on a solid nutritive medium.
One group of rats was sprayed with the compound of Example 1 (aqueous solution) in the vicinity of the wounds (1 to 3 times daily).
A group of control rats were sprayed with sterile distilled water.

[9] = tested on: Pneumobacille; experiment: bacteriostatic activity (MIC), Pneumobacille; type: cell-based; conditions: 48 h, Table I, 37° C., read-out: MIC
Description: (§4) The medium containing the solution to be tested is inoculated in the form of three single striae with a 10^-5 times dilution of a bacterial culture aged 16 to 18 hours grown in salted peptone broth at a temperature of 37° C. After inoculation, the media are stored at 37° C. for 48 hours, after which the bacterial growth is inspected. The MIC (minimum inhibiting concentrations) are expressed in micrograms of pure product per cubic centimeter of gelose medium required for inhibiting the culture (μg/cc). The control substance used is benzalconium chloride.

[10] = tested on: M pyogenes aureus; experiment: bactericidal activity, M pyogenes aureus; type: cell-based; conditions: Table II, 2 hours contact, laboratory temperature; read-out: MIC (bactericidal activity)
Description: (§5) Bactericidal activity is determined by the following methods: A titrate suspension of bacteria is brought into contact over a period of 2 hours at the temperature of the laboratory with increasing dilutions of the test product. The number of bacteria still alive are counted after passage through a filtering membrane.

[11] = tested on: Escherichia coli; experiment: bactericidal activity, Escherichia coli; type: cell-based; conditions: Table II, 2 hours contact, laboratory temperature, read-out: MIC (bactericidal activity)
Description: as §5

[12] = tested on: Serratia; experiment: bacteriostatic activity (MIC), Serratia; type: cell-based; conditions: Serratia, 48 h, Table I, 37° C., read-out: MIC
Description: as §4

[13] = tested on: Proteus vulgaris; experiment: bacteriostatic activity (MIC), Proteus vulgaris; type: cell-based; conditions: Proteus vulgaris, 48 h, Table I, 37° C., read-out: MIC
Description: as §4

[14] = tested on: Moraxella glucidolytica; experiment: bacteriostatic activity (MIC), Moraxella glucidolytica; type: cell-based; conditions: Moraxella, 48 h, Table I, 37° C., read-out: MIC
Description: as §4

[15] = tested on: Pseudomonas aeruginosa; experiment: bacteriostatic activity (MIC), Pseudomonas aeruginosa; type: cell-based; conditions: for MIC: Pseudomonas aeruginosa, 48 h
Description: as §1, §2, §3

[16] = tested on: Bacillus pyocyaneus; experiment: MIC study in a solid medium on 35 strains of Bacillus pyocyaneus; type: cell-based; conditions: Pseudomonas aeruginosa, majority of 35 strains, read-out: minimum inhibiting concentration
[17] = tested on: Bacillus subtilis; experiment: bactericidal activity, Bacillus subtilis; type: cell-based; conditions: Table II, 2 hours contact, laboratory temperature, read-out: MIC (bactericidal activity)
Description: as §5

[18] = tested on: spores of B.subtilis var. Niger; experiment: sporostatic activity (a), Petri dish dilution; type: cell-based; conditions: for number of colonies (average of 2 tests): approximately 200 spores
Description: (a) 1 cc of a suspension of spores of B.subtilis var. Niger containing approximately 200 spores is placed in one Petri dish, whilst 1 cc of a solution containing 3 g/100 cc of the product (mother solution) or of the same mother solution diluted to 1/10th, 1/100th, etc. up to 1/100,000th, are placed in other Petri dishes. Following the addition of a culture medium, the dishes are agitated, cooled and then placed in an oven. The number of colonies obtained are then determined.

[19] = tested on: Pseudomonas aeruginosa; experiment: bactericidal activity, Pseudomonas aeruginosa; type: cell-based; conditions: Table II, 2 hours contact, laboratory temperature, read-out: MIC (bactericidal activity)
Description: as §5

[20] = Table I, with 20% of serum, 37° C., 48 hours, read-out: MIC
[21] = Table I, without serum, 37° C., 48 hours, read-out: MIC
[22] = Table VI, bacteriostase containing 20% of serum, read-out: M.I.C.
[23] = Table VI, bacteriostase containing 20% of serum, hydrochloride
[24] = aqueous solution sprayed near wounds, 1 to 3 times daily

With `CCCCCCCCCCOCC(O)CN.Cl` (centres unmarked) [Compound 1, 3-decyloxy-2-hydroxy-1-aminopropane hydrochloride] the MIC [1, 20] was 120 µg/mL, the MIC [1, 21] was 60 µg/mL and the MIC [1, 22] was 75 µg/mL. The MIC [2, 20] was 50 µg/mL, the MIC [2, 21] was 30 µg/mL and the MIC [2, 22] was 60 µg/mL. The MIC ([2]; Table VI, bacteriostase without serum, read-out: M.I.C.) was 15 µg/mL, the M.I.C. [2, 23] was 50 μg/cc and 40 μg/cc and the “ocular irritation, general total of the results” value [3] was 0. For the same molecule, the LD50 [4] was 1300 mg/kg, the sporocidal activity [5] was “positive” and the bactericidal concentration [6] was “very similar to the MIC”. For the same molecule, the LD50 [7] was 54.5 mg/kg, the “number of colonies in positive cultures in relation to control rats” value [8, 24] was “only a very small number of colonies” and the “replica cultures totally negative” value [8, 24] was 75%. For the same molecule, the local tolerance ([8]; rat, in vivo) was “good”, the healing process ([8]; sprayed near wounds, 1 to 3 times daily) was “normal” and the MIC ([9]; with 20% of serum) was 75 µg/mL. For the same molecule, the MIC ([9]; without serum) was 35 µg/mL, the MBC [10] was 100 µg/mL and the MBC [11] was 50 µg/mL. The MIC ([12]; with 20% of serum) was 75 µg/mL, the MIC ([12]; without serum) was 20 µg/mL and the MIC ([13]; with 20% of serum) was 150 µg/mL. It also gave an MIC ([13]; without serum) of 40 µg/mL, an MIC ([14]; with 20% of serum) of 75 µg/mL and an MIC ([14]; without serum) of 40 µg/mL. For the same molecule, the MIC [15, 20] was 150 µg/mL, the MIC [15, 21] was 40 µg/mL and the MIC [15, 22] was 250 µg/mL. For the same molecule, the M.I.C. [15, 23] was 200 μg/cc and 400 μg/cc and 350 μg/cc, the MIC [16] was 62.5 µg/mL and the MBC [17] was 50 µg/mL. For the same molecule, the “number of colonies (average of 2 tests)” value ([18]; 0 dilutions to 1/10 (mother solution 3 g/100 cc)) was 0, the “number of colonies (average of 2 tests)” value ([18]; 1 dilution to 1/10 of mother solution 3 g/100 cc) was 0 and the “number of colonies (average of 2 tests)” value ([18]; 2 dilutions to 1/10 of mother solution 3 g/100 cc) was 18. For the same molecule, the “number of colonies (average of 2 tests)” value ([18]; 3 dilutions to 1/10 of mother solution 3 g/100 cc) was over 200, the “number of colonies (average of 2 tests)” value ([18]; 4 dilutions to 1/10 of mother solution 3 g/100 cc) was over 200 and the “number of colonies (average of 2 tests)” value ([18]; 5 dilutions to 1/10 of mother solution 3 g/100 cc) was over 200. The MIC ([18]; Bacillus subtilis, taking into account the dilution by the gelose culture medium, from Table III, read-out: concentration still showing sporostatic activity) was 20 µg/mL and the MBC [19] was 50 µg/mL.
